The record followed here is US20260007758A1, “SO[…]-2 RECEPTOR (SST2R) NON-PEPTIDE DRUG CONJUGATES AND USES THEREOF” (Crinetics Pharmaceuticals, Inc., priority 2024, published 2026).

Type in all cases: cell-based
The target in one assay is T1, SST2 (Homo sapiens, UniProt P30874).
T1 construct: host or cells: PathHunter CHO-K1 SST2 cells
Nature of the assay: PathHunter CHO-K1 SST2 Internalization Assay. Particulars: PathHunter CHO-K1 SST2 cells; 90 min at 37 C; luminescence; read-out: Internalization EC50. In outline: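 CHO-K1 cells expressing human SST2, 2500 cells/well, grown 48 h, then exposed 90 min at 37 C to 11-point 1:3 NDC dilutions (final top 10 uM). Beta-Glo luminescence after 60 min at room temperature; four-parameter IC50, duplicate mean, background-corrected.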

Assay [1] concerns NCI-H524 human small cell lung cancer cells. Nature of the assay: H524 assay: inhibition of cell proliferation (CellTiter Glo). Particulars: 2 h treatment, washout, additional 70 h incubation. Put shortly: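 NCI-H524 cells were exposed for 2 h to NDC in an 11-point two-fold series starting at 1 uM. The drug was then washed out and cells grew a further 70 h. CellTiter Glo luminescence gave % inhibition versus untreated control, and IC50 came from a four-parameter nonlinear regression.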

For assay [2], the target named is T2, human somatostatin receptor subtype 2 (Homo sapiens, UniProt P30874).
T2 construct: expressed in transfected cells
Nature of the assay: Functional assay for SSTR2 agonists (HTRF cAMP). Particulars: CHO-K1 cells stably expressing human SST2; NKH477-stimulated cAMP; 20 min at 37 C; read-out: hSST2 cAMP Avg EC50. In outline:
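CHO-K1 cells stably expressing human SSTR2 treated with compound (typically 0-10,000 nM final) for 20 min at 37 °C. Lysate cAMP measured by HTRF (665/620 nm ratio), converted via standard curve; EC50 from cAMP vs concentration.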

The structures appear in SMILES notation.

T2 sequence (P30874 whole entry): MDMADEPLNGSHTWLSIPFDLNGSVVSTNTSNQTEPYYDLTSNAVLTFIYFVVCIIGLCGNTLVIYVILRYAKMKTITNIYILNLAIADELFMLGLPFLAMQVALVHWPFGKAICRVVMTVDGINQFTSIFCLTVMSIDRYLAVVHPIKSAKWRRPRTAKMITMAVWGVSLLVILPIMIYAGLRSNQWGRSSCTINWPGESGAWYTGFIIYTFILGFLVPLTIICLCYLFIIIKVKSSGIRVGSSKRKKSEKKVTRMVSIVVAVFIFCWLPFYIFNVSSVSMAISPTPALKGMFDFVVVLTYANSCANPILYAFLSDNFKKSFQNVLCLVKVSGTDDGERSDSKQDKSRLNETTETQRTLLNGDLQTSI
T1 sequence (P30874 whole entry): as above

As to `CC[C@H](C)[C@@H]([C@@H](CC(=O)N1CCC[C@H]1[C@H](OC)[C@@H](C)C(=O)N[C@H](C)[C@@H](O)c1ccccc1)OC)N(C)C(=O)[C@@H](NC(=O)[C@H](C(C)C)N(C)C(=O)OCc1ccc(NC(=O)[C@H](CCCNC(N)=O)NC(=O)[C@@H](NC(=O)c2cc(NC(=O)CCOCCn3cc(CCC(=O)NCCNc4ncc(-c5cc(C)cc(F)c5)c(N5CCC(N)CC5)c4-c4nc5ccc(Cl)cc5[nH]4)nn3)cc(C(=O)NCC(=O)O)c2)C(C)C)cc1)C(C)C` [Compound 155], the values for the EC50 (at SST2; in assay [1]; in assay [2]) were 10 nM, 300 nM and 0.44 nM, respectively.

`CC[C@H](C)[C@@H]([C@@H](CC(=O)N1CCC[C@H]1[C@H](OC)[C@@H](C)C(=O)N[C@H](C)[C@@H](O)c1ccccc1)OC)N(C)C(=O)[C@@H](NC(=O)[C@H](C(C)C)N(C)C(=O)OCc1ccc(NC(=O)[C@H](CCCNC(N)=O)NC(=O)[C@@H](NC(=O)[C@@H](NC(=O)CCOCCC(=O)NCCNc2ncc(-c3cc(C)cc(F)c3)c(N3CCC(N)CC3)c2-c2nc3ccc(Cl)cc3[nH]2)c2cnn(C)c2)C(C)C)c(OCC(=O)O)c1)C(C)C` [Compound 203]: the results for the 50% effective concentration (EC50) (on SST2; in assay [1]; in assay [2]) were 7.7 nM, 71 nM and 0.11 nM, respectively.

As for `CC[C@H](C)[C@@H]([C@@H](CC(=O)N1CCC[C@H]1[C@H](OC)[C@@H](C)C(=O)N[C@H](C)[C@@H](O)c1ccccc1)OC)N(C)C(=O)[C@@H](NC(=O)[C@H](C(C)C)N(C)C(=O)OCc1ccc(NC(=O)[C@H](C)NC(=O)[C@@H](NC(=O)CCOCCn2cc(CCC(=O)NCCNc3ncc(-c4cc(C)cc(F)c4)c(N4CCC(N)CC4)c3-c3nc4ccc(Cl)cc4[nH]3)nn2)C(C)C)c(O[C@@H]2O[C@H](C(=O)O)[C@@H](O)[C@H](O)[C@H]2O)c1)C(C)C` [Compound 141], the figures for the EC50 (on SST2; in assay [1]; in assay [2]) were 8.8 nM, 20 nM and 0.1 nM, respectively.

`CC[C@H](C)[C@@H]([C@@H](CC(=O)N1CCC[C@H]1[C@H](OC)[C@@H](C)C(=O)N[C@H](C)[C@@H](O)c1ccccc1)OC)N(C)C(=O)[C@@H](NC(=O)[C@H](C(C)C)N(C)C(=O)OCc1ccc(NC(=O)[C@H](CCCNC(N)=O)NC(=O)[C@@H](NC(=O)CCOCCC(=O)NCCNc2ncc(-c3cc(C)cc(F)c3)c(N3CCC(N)CC3)c2-c2cc3ccc(Cl)cc3[nH]2)C(C)C)c(O[C@@H]2C[C@H](C(=O)NCCN)[C@@H](O)[C@H](O)[C@H]2O)c1)C(C)C` [Compound 43]: the results for the EC50 (at SST2; in assay [1]; in assay [2]) were 6.6 nM, 1.8 nM and 0.24 nM, respectively.

Turning to `CC[C@H](C)[C@@H]([C@@H](CC(=O)N1CCC[C@H]1[C@H](OC)[C@@H](C)C(=O)N[C@H](C)[C@@H](O)c1ccccc1)OC)N(C)C(=O)[C@@H](NC(=O)[C@H](C(C)C)N(C)C(=O)OCc1ccc(NC(=O)[C@H](CCCNC(N)=O)NC(=O)[C@@H](NC(=O)CCCC(=O)N(C)CC(=O)NCCNc2ncc(-c3cc(C)cc(F)c3)c(N3CCC(N)CC3)c2-c2nc3ccc(Cl)cc3[nH]2)C(C)C)c(O[C@@H]2O[C@H](C(=O)NCCN)[C@@H](O)[C@H](O)[C@H]2O)c1)C(C)C` [Compound 209], the values for the EC50 (at SST2; in assay [1]; in assay [2]) were 2.7 nM, 1.5 nM and 0.11 nM, respectively.

Take `CC[C@H](C)[C@@H]([C@@H](CC(=O)N1CCC[C@H]1[C@H](OC)[C@@H](C)C(=O)N[C@H](C)[C@@H](O)c1ccccc1)OC)N(C)C(=O)[C@@H](NC(=O)[C@H](C(C)C)N(C)C(=O)OCc1ccc(NC(=O)[C@H](C)NC(=O)[C@@H](NC(=O)CCOCCC(=O)NCCNc2ncc(-c3cc(C)cc(F)c3)c(N3CCC(N)CC3)c2-c2nc3c(F)c(F)ccc3[nH]2)C(C)C)c(O[C@@H]2O[C@H](C(=O)O)[C@@H](O)[C@H](O)[C@H]2O)c1)C(C)C` [Compound 109]: the 50% effective concentration (EC50) on SST2 worked out at 35 nM; in assay [1], 200 nM; in assay [2], 1.1 nM.

Take `CC[C@H](C)[C@@H]([C@@H](CC(=O)N1CCC[C@H]1[C@H](OC)[C@@H](C)C(=O)N[C@H](C)[C@@H](O)c1ccccc1)OC)N(C)C(=O)[C@@H](NC(=O)[C@H](C(C)C)N(C)C(=O)OCc1ccc(NC(=O)[C@H](CCCNC(N)=O)NC(=O)[C@@H](NC(=O)CCOCCOCCOCCOCCC(=O)N(C)CC(=O)NCCNc2ncc(-c3cc(C)cc(F)c3)c(N3CCC(N)CC3)c2-c2nc3ccc(Cl)cc3[nH]2)C(C)C)c(OCC(=O)O)c1)C(C)C` [Compound 24]: the results for the EC50 (on SST2; in assay [1]; in assay [2]) were 20 nM, 100 nM and 0.2 nM, respectively.

In the case of `CC[C@H](C)[C@@H]([C@@H](CC(=O)N1CCCC1[C@H](OC)[C@@H](C)C(=O)N[C@H](C)[C@@H](O)c1ccccc1)OC)N(C)C(=O)[C@@H](NC(=O)[C@H](C(C)C)N(C)C(=O)OCc1ccc(O[C@@H]2O[C@H](C(=O)O)[C@@H](O)[C@H](O)[C@H]2O)c(NC(=O)[C@H](C)NC(=O)[C@@H](NC(=O)CCOCCC(=O)NCCNc2ncc(-c3cc(C)cc(F)c3)c(N3CCC(N)CC3)c2-c2nc3ccc(Cl)cc3[nH]2)C(C)C)c1)C(C)C` (stereo partly drawn) [Compound 249], the EC50 on SST2 was 4.5 nM; in assay [1] it was 9.8 nM; in assay [2], 0.086 nM.

In the case of `CC[C@H](C)[C@@H]([C@@H](CC(=O)N1CCC[C@H]1[C@H](OC)[C@@H](C)C(=O)N[C@H](C)[C@@H](O)c1ccccc1)OC)N(C)C(=O)[C@@H](NC(=O)[C@H](C(C)C)N(C)C(=O)OCc1ccc(NC(=O)[C@H](CCCNC(N)=O)NC(=O)[C@@H](NC(=O)C[C@@H](N)C(=O)NCCOCCC(=O)NCCNc2ncc(-c3cc(C)cc(F)c3)c(N3CCC(NC)CC3)c2-c2nc3cc(F)cc(OC)c3[nH]2)C(C)C)c(O[C@@H]2O[C@H](C(=O)O)[C@@H](O)[C@H](O)[C@H]2O)c1)C(C)C` [Compound 123], the concentration for a half-maximal effect (EC50) on SST2 stood at 2.3 nM; in assay [1], 8.4 nM; in assay [2], 0.2 nM.

Regarding `CC[C@H](C)[C@@H]([C@@H](CC(=O)N1CCC[C@H]1[C@H](OC)[C@@H](C)C(=O)N[C@H](C)[C@@H](O)c1ccccc1)OC)N(C)C(=O)[C@@H](NC(=O)[C@H](C(C)C)N(C)C(=O)OCc1ccc(NC(=O)[C@H](CCCNC(N)=O)NC(=O)[C@@H](NC(=O)[C@H](CCC(=O)O)NC(=O)CCOCCC(=O)NCCNc2ncc(-c3cc(C)cc(F)c3)c(N3CCC(N)CC3)c2-c2nc3ccc(Cl)cc3[nH]2)C(C)C)c(C(F)(F)F)c1)C(C)C` [Compound 6], the EC50 at SST2 was 3.5 nM; in assay [1] it was 7300 nM; in assay [2] it was 0.21 nM.

Regarding `CC[C@H](C)[C@@H]([C@@H](CC(=O)N1CCCC1[C@H](OC)[C@@H](C)C(=O)N[C@H](C)[C@@H](O)c1ccccc1)OC)N(C)C(=O)[C@@H](NC(=O)[C@H](C(C)C)N(C)C(=O)OCc1ccc(NC(=O)[C@H](CCCNC(N)=O)NC(=O)[C@@H](NC(=O)CCOCCC(=O)N(C)CC(=O)NCCNc2ncc(-c3cc(C)cc(F)c3)c(N3CCC(N)CC3)c2-c2nc3ccc(Cl)cc3[nH]2)C(C)C)c(OC)c1)C(C)C` (stereo partly drawn) [Compound 198], the concentration giving a half-maximal response (EC50) on SST2 was found to be 3.5 nM; in assay [1], 32 nM; in assay [2], 0.082 nM.

With `CC[C@H](C)[C@@H]([C@@H](CC(=O)N1CCC[C@H]1[C@H](OC)[C@@H](C)C(=O)N[C@H](C)[C@@H](O)c1ccccc1)OC)N(C)C(=O)[C@@H](NC(=O)[C@H](C(C)C)N(C)C(=O)OCc1ccc(NC(=O)[C@H](CCCNC(N)=O)NC(=O)[C@@H](NC(=O)c2cn(CCOCCC(=O)NCCNc3ncc(-c4cc(C)cc(F)c4)c(N4CCC(N)CC4)c3-c3nc4ccc(Cl)cc4[nH]3)nn2)C(C)C)cc1)C(C)C` [Compound 142], the EC50 on SST2 came out at 6.3 nM; in assay [1] it was 790 nM; in assay [2] it was 0.37 nM.

Take `CC[C@H](C)[C@@H]([C@@H](CC(=O)N1CCC[C@H]1[C@H](OC)[C@@H](C)C(=O)N[C@H](C)[C@@H](O)c1ccccc1)OC)N(C)C(=O)[C@@H](NC(=O)[C@H](C(C)C)N(C)C(=O)OCc1ccc(NC(=O)[C@H](CCCNC(N)=O)NC(=O)[C@@H](NC(=O)[C@H](Cc2c[nH]cn2)NC(=O)CCOCCC(=O)NCCNc2ncc(-c3cc(C)cc(F)c3)c(N3CCC(N)CC3)c2-c2nc3ccc(Cl)cc3[nH]2)C(C)C)c(O[C@@H]2C[C@H](C(=O)NCC(=O)O)[C@@H](O)[C@H](O)[C@H]2O)c1)C(C)C` [Compound 212]: the EC50 worked out at 4.5 nM at SST2, 20 nM in assay [1] and 0.088 nM in assay [2].

On to `CC[C@H](C)[C@@H]([C@@H](CC(=O)N1CCC[C@H]1[C@H](OC)[C@@H](C)C(=O)N[C@H](C)[C@@H](O)c1ccccc1)OC)N(C)C(=O)[C@@H](NC(=O)[C@H](C(C)C)N(C)C(=O)OCc1ccc(NC(=O)[C@H](CCCNC(N)=O)NC(=O)[C@@H](NC(=O)c2cc(NCCOCCC(=O)N(C)CC(=O)NCCNc3ncc(-c4cc(C)cc(F)c4)c(N4CCC(N)CC4)c3-c3nc4ccc(Cl)cc4[nH]3)cc(C(=O)NCC(=O)O)c2)C(C)C)cc1)C(C)C` [Compound 162], for which the EC50 on SST2 stood at 4.7 nM; in assay [1], 60 nM; in assay [2], 0.27 nM.

Turning to `CC[C@H](C)[C@@H]([C@@H](CC(=O)N1CCC[C@H]1[C@H](OC)[C@@H](C)C(=O)N[C@H](C)[C@@H](O)c1ccccc1)OC)N(C)C(=O)[C@@H](NC(=O)[C@H](C(C)C)N(C)C(=O)OCc1ccc(NC(=O)[C@H](CCCNC(N)=O)NC(=O)[C@@H](NC(=O)c2cc(NC(=O)CCOCCC(=O)N(C)CC(=O)NCCNc3ncc(-c4cc(C)cc(F)c4)c(N4CCC(N)CC4)c3-c3nc4ccc(Cl)cc4[nH]3)cc(C(=O)NC[C@@H](O)C(=O)O)c2)C(C)C)cc1)C(C)C` [Compound 244], the EC50 on SST2 was 4 nM; in assay [1], 55 nM; in assay [2] it was 0.26 nM.
